Source: patent publication EP0527889B1, “QUINOLIZINONE TYPE COMPOUNDS” (priority 1990, dated 1991)
Converted amounts (≈) assume the structure as drawn. Counter-ions that a name gives are not always drawn.

What was measured:
Test in all cases: In vitro antibacterial activity, MIC by agar dilution
Type in all cases: cell-based
Conditions in all cases: BHI agar, 35-37°C, 20-24 hours, unit assumed
[1] = system: Escherichia coli DC-2
Method: (§1) Each plate was inoculated with 1:100 (or 1:10 for slow growing strains, primarily Micrococcus and Streptococcus) dilutions of up to 32 different microorganisms, using a Steers replicator block calibrated to deliver approximately 10^4 colony forming units (CFUs). The inoculated plates were incubated at from about 35°C to about 37°C for approximately 20-24 hours. In addition, a control plate using BHI agar containing no test compound was prepared and incubated at the beginning and at the end of each test. Ciprofloxacin was used as the control antibiotic.
(§2) The MIC was defined as the lowest concentration of test compound yielding no growth (a slight haze or sparsely isolated colonies at the inoculum spot) as compared to the growth control containing no test compound.

[2] = system: Enterobacter aerogenes ATCC 13048
Method: as §1, §2

[3] = system: Micrococcus luteus ATCC 4698
Method: as §1, §2

[4] = system: Staphylococcus aureus 1775
Method: as §1, §2

[5] = system: Staphylococcus aureus NCTC 10649
Method: as §1, §2

[6] = system: Streptococcus pyrogenes 2548 INDUC
Method: as §1, §2

[7] = system: Providencia stuartii CMX 640
Method: as §1, §2

[8] = system: Staphylococcus aureus A5177
Method: as §1, §2

[9] = system: Staphylococcus aureus 642A
Method: as §1, §2

[10] = system: Pseudomonas aeruginosa 2862
Method: as §1, §2

[11] = system: Pseudomonas cepacia 296I
Method: as §1, §2

[12] = system: Streptococcus pyrogenes CONST
Method: as §1, §2

[13] = system: Klebsiella pneumoniae ATCC 8045
Method: as §1, §2

[14] = system: Pseudomonas aeruginosa 5263
Method: as §1, §2

[15] = system: Escherichia coli SS
Method: as §1, §2

[16] = system: Pseudomonas aeruginosa K799/61
Method: as §1, §2

[17] = system: Staphylococcus aureus ATCC 6538P
Method: as §1, §2

[18] = system: Staphylococcus aureus CMX 553
Method: as §1, §2

[19] = system: Enterococcus faecium ATCC 8043
Method: as §1, §2

[20] = system: Pseudomonas aeruginosa K799/WT
Method: as §1, §2

[21] = system: Pseudomonas aeruginosa A5007
Method: as §1, §2

[22] = system: Escherichia coli JUHL
Method: as §1, §2

[23] = system: Pseudomonas aeruginosa BMH10
Method: as §1, §2

[24] = system: Escherichia coli H560
Method: as §1, §2

[25] = system: Staphylococcus epidermidis 3519
Method: as §1, §2

[26] = system: Escherichia coli KNK 437
Method: as §1, §2

[27] = system: Staphylococcus aureus A-5278
Method: as §1, §2

[28] = system: Streptococcus agalactaciae CMX 508
Method: as §1, §2

[29] = system: Micrococcus luteus ATCC 9341
Method: as §1, §2

[30] = system: Acinetobacter calcoaceticus CMX 669
Method: as §1, §2

[31] = system: Streptococcus bovis A5169
Method: as §1, §2

[32] = system: Streptococcus pyrogenes EES61
Method: as §1, §2

Row | Structure (SMILES) | MIC values [1] | MIC values [3] | MIC values [5] | MIC values [8] | MIC values [11] | MIC values [12] | MIC values [14] | MIC values [15] | MIC values [16] | MIC values [17] | MIC values [18] | MIC values [19] | MIC values [20] | MIC values [22] | MIC values [23] | MIC values [24] | MIC values [25] | MIC values [26] | MIC values [28] | MIC values [29] | other results
1 | O=C(O)c1cn(C2CC2)c2cc(N3CCNCC3)c(F)cc2c1=O [Cntl, Ciprofloxacin, reference compound] | 0.2 µg/mL (≈ 0.604 µM) | 0.78 µg/mL (≈ 2.35 µM) | 0.39 µg/mL (≈ 1.18 µM) | 0.39 µg/mL (≈ 1.18 µM) | 3.1 µg/mL (≈ 9.36 µM) | 0.78 µg/mL (≈ 2.35 µM) | 12.5 µg/mL (≈ 37.7 µM) | 0.005 µg/mL (≈ 0.0151 µM) | 0.02 µg/mL (≈ 0.0604 µM) | 0.2 µg/mL (≈ 0.604 µM) | 0.78 µg/mL (≈ 2.35 µM) | 0.39 µg/mL (≈ 1.18 µM) | 0.1 µg/mL (≈ 0.302 µM) | 0.01 µg/mL (≈ 0.0302 µM) | 0.1 µg/mL (≈ 0.302 µM) | 0.01 µg/mL (≈ 0.0302 µM) | 0.39 µg/mL (≈ 1.18 µM) | 0.2 µg/mL (≈ 0.604 µM) | 0.39 µg/mL (≈ 1.18 µM) | 1.56 µg/mL (≈ 4.71 µM) | MIC values [2]: 0.05 µg/mL (≈ 0.151 µM); MIC values [4]: > 100 µg/mL; MIC values [6]: 0.39 µg/mL (≈ 1.18 µM); MIC values [7]: 0.78 µg/mL (≈ 2.35 µM); MIC values [9]: 0.39 µg/mL (≈ 1.18 µM); MIC values [10]: 25 µg/mL (≈ 75.4 µM); MIC values [13]: 0.02 µg/mL (≈ 0.0604 µM); MIC values [21]: 0.1 µg/mL (≈ 0.302 µM); MIC values [27]: 0.39 µg/mL (≈ 1.18 µM); MIC values [30]: 0.39 µg/mL (≈ 1.18 µM); MIC values [31]: 1.56 µg/mL (≈ 4.71 µM); MIC values [32]: 0.39 µg/mL (≈ 1.18 µM)
2 | NC1CCN(c2nc3c(C4CC4)cc(C(=O)O)c(=O)n3cc2F)C1 (stereo not drawn) [Example 157, 2-(3-Aminopyrrolidin-1-yl)-9-cyclopropyl-3-fluoro-6H-6-oxo-pyrido[1,2-a]pyrimidine-7-carboxylic acid hydrochloride salt] | 0.39 µg/mL | 1.56 µg/mL | 0.2 µg/mL | 0.39 µg/mL | 3.1 µg/mL | 1.56 µg/mL | 50 µg/mL | 0.01 µg/mL | 0.05 µg/mL | 0.2 µg/mL | 0.39 µg/mL | 1.56 µg/mL | 0.2 µg/mL | 0.02 µg/mL | 0.2 µg/mL | 0.02 µg/mL | 0.39 µg/mL | 0.39 µg/mL | 1.56 µg/mL | 3.1 µg/mL | MIC values ([2]; hydrochloride salt): 0.02 µg/mL; MIC values ([4]; hydrochloride salt): 25 µg/mL; MIC values ([6]; hydrochloride salt): 0.39 µg/mL; MIC values ([7]; hydrochloride salt): 1.56 µg/mL; MIC values ([9]; hydrochloride salt): 0.39 µg/mL; MIC values ([10]; hydrochloride salt): 25 µg/mL; MIC values ([13]; hydrochloride salt): 0.02 µg/mL; MIC values ([21]; hydrochloride salt): 0.39 µg/mL; MIC values ([27]; hydrochloride salt): 0.39 µg/mL; MIC values [30]: 0.2 µg/mL; MIC values ([31]; hydrochloride salt): 3.1 µg/mL; MIC values [32]: 1.56 µg/mL
3 | CN1CCN(c2nc3c(-c4ccc(F)cc4F)cc(C(=O)O)c(=O)n3cc2F)CC1 [Example 159, 9-(2,4-Difluorophenyl)-3-fluoro-2-(4-methylpiperazin-1-yl)-6H-6-oxopyridol[1,2-a]pyrimidine-7-carboxylic acid] | 6.2 µg/mL (≈ 14.8 µM) | 12.5 µg/mL (≈ 29.9 µM) | 0.2 µg/mL (≈ 0.478 µM) | 0.39 µg/mL (≈ 0.932 µM) | 25 µg/mL (≈ 59.8 µM) | 3.1 µg/mL (≈ 7.41 µM) | > 100 µg/mL | 0.02 µg/mL (≈ 0.0478 µM) | 0.39 µg/mL (≈ 0.932 µM) | 0.2 µg/mL (≈ 0.478 µM) | 0.39 µg/mL (≈ 0.932 µM) | 6.2 µg/mL (≈ 14.8 µM) | 3.1 µg/mL (≈ 7.41 µM) | 0.39 µg/mL (≈ 0.932 µM) | 3.1 µg/mL (≈ 7.41 µM) | 0.39 µg/mL (≈ 0.932 µM) | 0.39 µg/mL (≈ 0.932 µM) | 6.2 µg/mL (≈ 14.8 µM) | 3.1 µg/mL (≈ 7.41 µM) | 25 µg/mL (≈ 59.8 µM) | MIC values [2]: 0.78 µg/mL (≈ 1.86 µM); MIC values [4]: > 100 µg/mL; MIC values [6]: 3.1 µg/mL (≈ 7.41 µM); MIC values [7]: 25 µg/mL (≈ 59.8 µM); MIC values [9]: 0.39 µg/mL (≈ 0.932 µM); MIC values [10]: > 100 µg/mL; MIC values [13]: 0.2 µg/mL (≈ 0.478 µM); MIC values [21]: 6.2 µg/mL (≈ 14.8 µM); MIC values [27]: 0.2 µg/mL (≈ 0.478 µM); MIC values [30]: 0.78 µg/mL (≈ 1.86 µM); MIC values [31]: 12.5 µg/mL (≈ 29.9 µM); MIC values [32]: 3.1 µg/mL (≈ 7.41 µM)
